Source: US4742049A, “Semisynthetic erythromycin antibiotics” (Abbott Laboratories, priority 1986, dated 1988)
Converted amounts (≈) assume the structure as drawn. Like-named read-outs stand apart in the source and are kept apart here.

Key:
[1] = system: Pseudomonas cepacia; assay: antimicrobial spectrum, agar dilution MIC; type: cell-based; conditions: Burkholderia cepacia, strain 2961; BHI agar, 20-24 hours; read-out: MIC
Procedure: Erythromycin A was used for this purpose.
After incubation, each disk is read.

[2] = system: Acinetobacter SP; assay: antimicrobial spectrum, agar dilution MIC; type: cell-based; conditions: strain CMX 669, BHI agar, 20-24 hours
[3] = system: Strep. pneumoniae; assay: antimicrobial spectrum, agar dilution MIC; type: cell-based; conditions: Streptococcus pneumoniae
Procedure, shortened: (§1)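 Successive aqueous dilutions of compound in Brain Heart Infusion agar, spot-inoculated by replicator with 1:100 (1:10 for slow-growing strains) organism dilutions and incubated 20-24 h at 35°-37° C. MIC taken as lowest concentration giving no growth, slight haze, or sparse isolated colonies versus drug-free control.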

[4] = system: Strep. faecalis; assay: antimicrobial spectrum, agar dilution MIC; type: cell-based; conditions: Enterococcus faecalis, BHI agar, 20-24 hours
Procedure, shortened: as §1

[5] = system: Providencia stuartii; assay: antimicrobial spectrum, agar dilution MIC; type: cell-based; conditions: strain CMX 640, BHI agar, 20-24 hours
Procedure, shortened: as §1

[6] = system: Staph. epidermidis; assay: antimicrobial spectrum, agar dilution MIC; type: cell-based; conditions: Staphylococcus epidermidis, BHI agar, 20-24 hours
Procedure, shortened: as §1

[7] = system: Strep. bovis; assay: antimicrobial spectrum, agar dilution MIC; type: cell-based; conditions: Streptococcus equinus, strain A5169; BHI agar, 20-24 hours
Procedure, shortened: as §1

[8] = system: Strep. faecium; assay: antimicrobial spectrum, agar dilution MIC; type: cell-based; conditions: Enterococcus faecium, ATCC8043, strain ATCC 8043; BHI agar, 20-24 hours
Procedure, shortened: as §1

[9] = system: Staph. aureus; assay: antimicrobial spectrum, agar dilution MIC; type: cell-based; conditions: Staphylococcus aureus, BHI agar, 20-24 hours
Procedure, shortened: as §1

[10] = system: Strep. pyogenes; assay: antimicrobial spectrum, agar dilution MIC; type: cell-based; conditions: Streptococcus pyogenes, BHI agar, 20-24 hours
Procedure, shortened: as §1

[11] = system: Pseudomonas aeruginosa; assay: antimicrobial spectrum, agar dilution MIC; type: cell-based; conditions: Pseudomonas aeruginosa, BHI agar, 20-24 hours
Procedure, shortened: as §1

[12] = system: Strep. agalactiae; assay: antimicrobial spectrum, agar dilution MIC; type: cell-based; conditions: Streptococcus agalactiae, BHI agar, 20-24 hours
Procedure, shortened: as §1

[13] = system: Staph. aureus NCTC 10649; assay: acute mouse protection test; conditions: for ED50: Staphylococcus aureus, NCTC10649, in Mus musculus, 168 h, dosed 1 and 5 hours post-infection, observed 7 days; for # Died: ten mice
Procedure: The acute mouse protection test is conducted on ten mice with each of three levels of drug.
The acute mouse protection test is conducted on female, Swiss albino mice, 18-20 grams in weight. The mice are injected intraperitoneally with an 18-hour culture of the indicated test organism diluted sufficiently to provide the desired LD50 value. To check the potency of the inoculum, a titration of the indicated test organism is carried out in control animals. […] The ED50 values are calculated using the mortality data collected.

[14] = system: Lactobacillus Casei; assay: antimicrobial spectrum, agar dilution MIC; type: cell-based; conditions: Lacticaseibacillus casei, ATCC7469, strain ATCC 7469; BHI agar, 20-24 hours
[15] = system: E. coli; assay: antimicrobial spectrum, agar dilution MIC; type: cell-based; conditions: Escherichia coli, BHI agar, 20-24 hours
[16] = system: Klebsiella pneumoniae; assay: antimicrobial spectrum, agar dilution MIC; type: cell-based; conditions: strain 8045, BHI agar, 20-24 hours
[17] = system: gut contractions (stomach, duodenum, jejunum); conditions: dog, in vivo, iv, 4 mg/kg
Procedure: Compounds of this invention have been tested for gastrointestinal stimulating activity in a dog model at 4 mg/kg intravenously. Contractions in the gut were recorded with surgically implanted strain gauges. […] Ratios were calculated for the stomach, duodenum and jejunum, and a final arithmetic mean index was calculated and reported in Table 1.

[18] = system: Ent. aerogenes; assay: antimicrobial spectrum, agar dilution MIC; type: cell-based; conditions: Klebsiella aerogenes, ATCC10348, strain ATCC 10348; BHI agar, 20-24 hours
[19] = system: Staph. saprophyticus; assay: microbe, parasite or virus in culture; conditions: Staphylococcus saprophyticus, ATCC15305
Procedure: Twelve petri dishes containing successive aqueous dilutions of the test compound mixed with 10 ml of sterilized Brain Heart Infusion agar (Difco 0418-01-5) are prepared. Each plate is inoculated with 1:100 (or 1:10 for slow-growing strains, primarily Micrococcus and Streptococcus) dilutions of up to 32 different microorganisms, using a Steers replicator block. The inoculated plates are incubated at 35°-37° C. for 20-24 hours. In addition, a control plate, using BHI agar containing no test compound, is prepared and incubated at the beginning and end of each test.
An additional plate containing a compound having known susceptibility patterns for the organisms being tested and belonging to the same antibiotic class as the test compound is also prepared and incubated as a further control, as well as to provide test-to-test comparability.
After incubation, each disk is read. The MIC is defined as the lowest concentration of drug yielding no growth, a slight haze, or sparsely isolated colonies on the inoculum spot as compared to the growth control.

[20] = system: Micrococcus luteus; assay: antimicrobial spectrum, agar dilution MIC; type: cell-based; conditions: 20-24 hours

Q: Which results are given for `CC[C@H]1OC(=O)[C@H](C)[C@@H](O[C@H]2C[C@@](C)(OC)[C@@H](O)[C@H](C)O2)[C@H](C)[C@@H](O[C@@H]2O[C@H](C)C[C@H](N(C)C)[C@H]2O)[C@](C)(OC)C[C@@H](C)C(=O)[C@H](C)[C@H]2NC(=O)O[C@@]21C` [Example 2, 11-deoxy-6-O-methyl erythromycin A 11,12 cyclic carbamate]?
A: MIC [1]: 25 µg/mL (≈ 32.3 µM); MIC [2]: 6.2 µg/mL (≈ 8.02 µM); MIC [3]: 16 µg/mL (≈ 20.7 µM); MIC ([3]; strain CMX 635, BHI agar, 20-24 hours): 0.004 µg/mL (≈ 0.00517 µM); MIC ([3]; strain CMX 698, BHI agar, 20-24 hours): 0.004 µg/mL (≈ 0.00517 µM); MIC ([4]; strain A-5168): > 128 µg/mL; MIC ([4]; strain CMX 663F): 0.5 µg/mL (≈ 0.647 µM); MIC ([4]; strain CMX 729G, read-out: MIC): 0.12 µg/mL (≈ 0.155 µM); MIC ([4]; strain CMX 736F, read-out: MIC): 0.06 µg/mL (≈ 0.0776 µM); MIC ([4]; strain GYR 1164, read-out: MIC): 0.12 µg/mL (≈ 0.155 µM); MIC ([4]; strain GYR 1166, read-out: MIC): 0.06 µg/mL (≈ 0.0776 µM); MIC ([4]; strain GYR 1167, read-out: MIC): 0.12 µg/mL (≈ 0.155 µM); MIC [5]: > 100 µg/mL; MIC ([6]; strain 3519): 0.05 µg/mL (≈ 0.0647 µM); MIC ([6]; strain 3519 RARI): 0.05 µg/mL (≈ 0.0647 µM); MIC ([6]; strain CMX 724G): > 128 µg/mL; MIC ([6]; strain CMX 728): 0.03 µg/mL (≈ 0.0388 µM); MIC ([6]; strain CMX 729h): > 128 µg/mL; MIC ([6]; strain GYR 1151): 0.03 µg/mL (≈ 0.0388 µM); MIC [7]: 0.02 µg/mL (≈ 0.0259 µM); MIC [8]: 0.05 µg/mL (≈ 0.0647 µM); MIC ([9]; ATCC6538P, strain ATCC 6538P): 0.1 µg/mL (≈ 0.129 µM); MIC ([9]; ATCC25923, strain ATCC 25923): 0.015 µg/mL (≈ 0.0194 µM); MIC ([9]; NCTC10649, strain NCTC 10649, read-out: MIC): 0.06 µg/mL (≈ 0.0776 µM); MIC ([9]; strain 45): 0.1 µg/mL (≈ 0.129 µM); MIC ([9]; strain 45 RAR 2): 0.2 µg/mL (≈ 0.259 µM); MIC ([9]; strain 642A): 0.03 µg/mL (≈ 0.0388 µM); MIC ([9]; strain A5177): 0.39 µg/mL (≈ 0.505 µM); MIC ([9]; strain A-5278): > 128 µg/mL; MIC ([9]; strain CMX 686B): 0.1 µg/mL (≈ 0.129 µM); MIC ([9]; strain CMX 705): 0.015 µg/mL (≈ 0.0194 µM); MIC ([9]; strain CMX 730A): 0.015 µg/mL (≈ 0.0194 µM); MIC ([9]; strain CMX 739A): 0.015 µg/mL (≈ 0.0194 µM); MIC ([9]; strain GYR 1150): 0.03 µg/mL (≈ 0.0388 µM); MIC ([9]; strain GYR 1162): 0.03 µg/mL (≈ 0.0388 µM); MIC ([10]; strain 930): > 100 µg/mL; MIC ([10]; strain C203): 0.004 µg/mL (≈ 0.00517 µM); MIC ([10]; strain EES61): 0.05 µg/mL (≈ 0.0647 µM); MIC ([10]; strain M79061-98, read-out: MIC): 0.25 µg/mL (≈ 0.323 µM); MIC ([10]; strain M79061-139): 0.004 µg/mL (≈ 0.00517 µM); MIC ([10]; strain M79061-140): 0.004 µg/mL (≈ 0.00517 µM); MIC ([11]; strain 5007): 100 µg/mL (≈ 129 µM); MIC ([11]; strain BMH10): 50 µg/mL (≈ 64.7 µM); MIC ([11]; strain K799/61): 1.56 µg/mL (≈ 2.02 µM); MIC ([11]; strain K799/WT): 50 µg/mL (≈ 64.7 µM); MIC ([12]; strain CMX 508): 0.01 µg/mL (≈ 0.0129 µM); MIC ([12]; strain CMX 633): 0.015 µg/mL (≈ 0.0194 µM); ED50 ([13]; po, dosage medium Carboxymethylcellulose): 45.2 mg/kg; ED50 ([13]; po, dosage medium PBS): 34.4 mg/kg; ED50 ([13]; sc, subcutaneous, dosage medium Injectable solution): 5 mg/kg; # Died ([13]; oral, Carboxymethylcellulose, 9.4 mg/kg): 10; # Died ([13]; oral, Carboxymethylcellulose, 62.5 mg/kg): 7; # Died ([13]; oral, Carboxymethylcellulose, 150.0 mg/kg): 0; # Died ([13]; oral, PBS, 9.4 mg/kg): 10; # Died ([13]; oral, PBS, 62.5 mg/kg): 7; # Died ([13]; oral, PBS, 150.0 mg/kg): 0; # Died ([13]; subcutaneous, Injectable solution, 2.5 mg/kg): 9; # Died ([13]; subcutaneous, Injectable solution, 10.0 mg/kg): 1; # Died ([13]; subcutaneous, Injectable solution, 40.0 mg/kg): 0; MIC [14]: 0.05 µg/mL (≈ 0.0647 µM); MIC ([15]; strain DC-2): 50 µg/mL (≈ 64.7 µM); MIC ([15]; strain H560): 3.1 µg/mL (≈ 4.01 µM); MIC ([15]; strain JUHL): 50 µg/mL (≈ 64.7 µM); MIC ([15]; strain KNK 437): 25 µg/mL (≈ 32.3 µM); MIC ([15]; strain SS): 0.39 µg/mL (≈ 0.505 µM); MIC [16]: 50 µg/mL (≈ 64.7 µM); Gastrointestinal Motility Index [17]: 1.18; MIC [18]: 100 µg/mL (≈ 129 µM); MIC [19]: 0.03 µg/mL (≈ 0.0388 µM); MIC ([20]; strain 4698, BHI agar): 0.39 µg/mL (≈ 0.505 µM); MIC ([20]; strain 9341, BHI agar): 0.05 µg/mL (≈ 0.0647 µM)
